Source: US20020051799A1, “Glucosylated hydroxystilbene compounds for treating skin conditions” (priority 2000, published 2002)

Assays:
[1] = glucosylated form compared with the non glucosylated form; cited from earlier work
tyrosinase = assay: Spectrophotometric tyrosinase assay (255 nm); assay type: biochemical
Procedure: A glucosylated resveratrol (4′,5-dihydroxystilbene-3-O-beta-D-glucoside) (APIN Chemicals N17555p, 29 D Milton Park, Abingdon, Oxon, United Kingdom) was incubated in the presence of an extract of stratum corneum or of a homogenate of hair follicles that had been removed by plucking. Under precise experimental conditions, the affinity of the resveratrol for tyrosinase was higher than for glucosylated resveratrol. This property was advantageously employed to measure the resveratrol liberated in the presence of tyrinosase, determined at 255 nm. This method was adapted from the method described by A. A. Calderon: “A Spectrophotometric Assay for Quantitative Analysis of the Oxidation of 4-hydroxystilbene by Peroxidase-H2O2 Systems: J. of Biochem. and Biophys. (1990) Methods 20: 171-180.
A 200 μl aliquot was removed and 10 μl of tyronisase was added.
Two independent measurements were carried out by determining the optical density at 255 nm over 10 minutes and calculating the slope of the graph (60 to 300 seconds).
Under the same conditions, a calibration curve was produced using resveratrol (1; 2.5; 5; 7.5 and 10 μl) in a volume adjusted to […].

Compound	antioxidant activity [1]	affinity for tyrosinase (tyrosinase; compared with glucosylated resveratrol, under precise experimental conditions)	concentrations at which resveratrol action was demonstrated (tyrosinase; in vitro tests)
OC[C@H]1O[C@@H](Oc2cc(O)cc(/C=C/c3ccc(O)cc3)c2)[C@H](O)[C@@H](O)[C@@H]1O [glucosylated resveratrol, 4′,5-dihydroxystilbene-3-O-beta-D-glucoside]	far inferior	–	–
Oc1ccc(C=Cc2cc(O)cc(O)c2)cc1 [resveratrol, 3,4′,5-trihydroxystilbene]	–	higher	less than 10 μm
